Reference: US11840686B2, “Modulation of prekallikrein (PKK) expression” (Ionis Pharmaceuticals, Inc., priority 2013, dated 2023)
Strand notation (5' to 3'): a small letter for the sugar, then the base; units joined by * are phosphorothioate-linked, units joined directly phosphodiester-linked; [ ] holds rarer units or linkages, { } end groups; capitals alone tell only the bases. e = 2'-O-(2-methoxyethyl) (MOE); [5mC] = 5-methylcytosine; d = 2'-deoxy (DNA)

Tested on: human PKK mRNA
Test: Antisense inhibition of human PKK mRNA in HepaRG cells, 3,000 nM (Example 1)
Format: cell-based
Conditions: relative to untreated control cells
Protocol: Antisense oligonucleotides were designed targeting a PKK nucleic acid and were tested for their effects on PKK mRNA in vitro. HepaRG™ cells, which are terminally differentiated hepatic cells derived from a human hepatic progenitor cell line and retain many characteristics of primary human hepatocytes (Lubberstedt M. et al., J. Pharmacol. Toxicol. Methods 2011 63: 59-68), were used in the screen.
The chimeric antisense oligonucleotides in the tables below were designed as 5-10-5 MOE gapmers. The gapmers are 20 nucleosides in length, wherein the central gap segment comprises of ten 2′-deoxynucleosides and is flanked by wing segments on the 5′ direction and the 3′ direction comprising five nucleosides each. Each nucleoside in the 5′ wing segment and each nucleoside in the 3′ wing segment has a 2′-O-methoxyethyl modification. The internucleoside linkages throughout each gapmer are phosphorothioate linkages. All cytosine residues throughout each gapmer are 5-methylcytosines. “Start site” indicates the 5′-most nucleoside to which the gapmer is targeted in the human gene sequence. “Stop site” indicates the 3′-most nucleoside to which the gapmer is targeted in the human gene sequence.
Cultured HepaRG™ cells at a density of 20,000 cells per well were transfected using electroporation with 3,000 nM antisense oligonucleotide. After a treatment period of approximately 24 hours, RNA was isolated from the cells and PKK mRNA levels were measured by quantitative real-time PCR. Human primer probe set RTS3454 (forward sequence […], designated herein as SEQ ID NO: 20; reverse sequence […], designated herein as SEQ ID NO: 21; probe sequence […], designated herein as SEQ ID NO: 22) was used to measure mRNA levels. PKK mRNA levels were adjusted according to total RNA content, as measured by RIBOGREEN®. The antisense oligonucleotides were tested in a series of experiments that had similar culture conditions. Results are presented as percent inhibition of PKK, relative to untreated control cells.

[1] = Table 4, HepaRG cells, electroporation with 3,000 nM antisense oligonucleotide, approx. 24 hours, PKK mRNA by RT-PCR (RTS3454)
[2] = Table 3, HepaRG cells, electroporation with 3,000 nM antisense oligonucleotide, approx. 24 hours, PKK mRNA by RT-PCR (RTS3454)
[3] = Table 1, PKK mRNA, HepaRG cells, 3,000 nM, electroporation, ~24 h
[4] = Table 2, PKK mRNA, HepaRG cells, 3,000 nM, electroporation, ~24 h

531188 (eG*eT*eT*eA*eA*dA*dA*d[5mC]*dA*dA*d[5mC]*dT*dA*dG*dA*eA*eG*e[5mC]*e[5mC]*eA; antisense) [compound 531188]
% inhibition [1]: 67%

531102 (eT*eG*e[5mC]*e[5mC]*eT*d[5mC]*dT*dT*dT*dA*dA*dT*dA*dA*dA*eA*eA*e[5mC]*eT*e[5mC]; antisense) [compound 531102]
% inhibition [2]: 42%

531190 (eG*e[5mC]*eA*eG*eT*d[5mC]*dA*d[5mC]*dT*d[5mC]*d[5mC]*dT*d[5mC]*dT*dT*e[5mC]*e[5mC]*eA*eG*e[5mC]; antisense) [compound 531190]
% inhibition [1]: 59%

530939 (antisense eA*eA*e[5mC]*eA*eA*dG*dG*dA*dA*dA*dT*dG*dA*dA*dA*eT*eA*eA*eG*eT) [compound 530939]
% inhibition [3]: 0%

531171 (antisense eA*eG*eG*e[5mC]*e[5mC]*dT*dG*d[5mC]*d[5mC]*dA*d[5mC]*dA*dG*dG*d[5mC]*e[5mC]*eA*eG*eA*e[5mC]) [compound 531171]
% inhibition [1]: 40%

531019 (eG*eT*eG*eA*eG*dG*dA*d[5mC]*d[5mC]*d[5mC]*dA*d[5mC]*dT*dG*dG*eT*eG*eT*e[5mC]*e[5mC]; antisense) [compound 531019]
% inhibition [4]: 28%

531157 (antisense eA*eA*eG*eT*eG*dA*dA*dT*d[5mC]*dA*dG*dA*dG*d[5mC]*dA*eG*eT*eG*eT*eA) [compound 531157]
% inhibition [2]: 46%

531010 (eA*eA*eG*eA*eG*dT*dT*dT*dG*dT*dT*d[5mC]*d[5mC]*dT*d[5mC]*e[5mC]*eA*eA*e[5mC]*eA; antisense) [compound 531010]
% inhibition [4]: 52%

531047 (antisense eA*eT*e[5mC]*eT*eT*dG*dA*dT*dA*dT*d[5mC]*dT*dT*dT*dT*e[5mC]*eT*eG*eG*e[5mC]) [compound 531047]
% inhibition [4]: 68%

531159 (antisense eA*eT*eT*eT*eG*dT*dT*dA*dA*dA*dA*dG*dT*dT*dG*e[5mC]*eT*eT*eA*eT) [compound 531159]
% inhibition [2]: 0%

531170 (antisense eG*e[5mC]*e[5mC]*eT*eG*dG*d[5mC]*d[5mC]*d[5mC]*d[5mC]*d[5mC]*dA*dA*dG*dA*e[5mC]*eT*e[5mC]*eT*eA) [compound 531170]
% inhibition [1]: 54%

530978 (antisense e[5mC]*eT*eA*eT*eA*dT*d[5mC]*d[5mC]*dA*dG*dA*dT*dA*dT*dG*eG*eT*eG*eT*eT) [compound 530978]
% inhibition [3]: 0%

531017 (eA*e[5mC]*eT*eG*eG*dT*dG*dT*d[5mC]*d[5mC]*dT*dA*dT*dG*dA*eG*eT*eG*eA*e[5mC]; antisense) [compound 531017]
% inhibition [4]: 31%

531228 (e[5mC]*eA*eG*eA*eG*dT*dA*dA*dA*d[5mC]*dT*d[5mC]*d[5mC]*d[5mC]*d[5mC]*eA*eT*e[5mC]*eT*e[5mC]; antisense) [compound 531228]
% inhibition [1]: 33%

531034 (antisense e[5mC]*eA*eT*eA*eT*dT*dG*dG*dT*dT*dT*dT*dT*dG*dG*eA*eA*eT*eT*e[5mC]) [compound 531034]
% inhibition [4]: 36%

531104 (eA*e[5mC]*eT*eT*eG*dA*d[5mC]*d[5mC]*dT*dT*dA*d[5mC]*dT*dG*dT*eT*eT*eT*eA*eG; antisense) [compound 531104]
% inhibition [2]: 20%

531039 (antisense eT*eA*e[5mC]*e[5mC]*e[5mC]*dA*dA*d[5mC]*dA*dG*dT*dT*dG*dG*dT*eA*eT*eA*eA*eA) [compound 531039]
% inhibition [4]: 36%

531133 (antisense eT*eT*eT*eT*eG*dT*dT*dG*dT*dG*d[5mC]*dA*dG*dA*d[5mC]*eT*eG*eA*eA*eA) [compound 531133]
% inhibition [2]: 19%

530931 (antisense e[5mC]*eT*eT*eA*eA*dA*dA*dA*dT*dG*dA*dA*d[5mC]*dG*dG*eT*e[5mC]*eT*eT*e[5mC]) [compound 530931]
% inhibition [3]: 29%

531223 (eT*eG*eT*eA*e[5mC]*dT*d[5mC]*dA*d[5mC]*d[5mC]*dG*dG*dT*dA*d[5mC]*eT*e[5mC]*eT*eG*e[5mC]; antisense) [compound 531223]
% inhibition [1]: 58%

531154 (antisense eA*eT*eG*eA*eA*dG*dT*dA*dA*dG*dA*dT*dG*d[5mC]*dT*eT*eA*eA*eA*eA) [compound 531154]
% inhibition [2]: 16%

530982 (antisense eT*eA*eA*eA*eG*dT*dT*d[5mC]*dT*dT*dT*dT*dG*d[5mC]*dA*eG*eG*eT*eT*eA) [compound 530982]
% inhibition [3]: 0%

531058 (antisense e[5mC]*e[5mC]*e[5mC]*eT*eT*dA*d[5mC]*dA*dA*dG*d[5mC]*dA*dT*d[5mC]*dT*eT*eT*eT*e[5mC]*e[5mC]) [compound 531058]
% inhibition [4]: 60%

531164 (antisense eT*eT*eA*eA*eA*dT*dA*dT*dA*dA*dA*dG*dA*dG*dA*eT*e[5mC]*e[5mC]*eT*e[5mC]) [compound 531164]
% inhibition [1]: 38%

530954 (antisense eT*eG*eG*eA*eA*dG*dA*dA*dA*dA*d[5mC]*dT*dG*dA*dA*eT*eA*eG*e[5mC]*eA) [compound 530954]
% inhibition [3]: 47%

531187 (eA*eT*e[5mC]*eT*eA*dT*dT*dG*dG*dT*dT*d[5mC]*dA*dG*dG*eA*eG*e[5mC]*e[5mC]*eA; antisense) [compound 531187]
% inhibition [1]: 72%

531063 (antisense eG*eA*e[5mC]*eA*e[5mC]*d[5mC]*dA*dG*dG*dT*dT*dG*d[5mC]*dT*d[5mC]*e[5mC]*e[5mC]*eT*eG*e[5mC]) [compound 531063]
% inhibition [4]: 51%

531150 (antisense eT*e[5mC]*e[5mC]*eT*eT*dA*dA*dT*dA*dG*dT*d[5mC]*dA*dT*dA*eG*e[5mC]*eA*eG*eG) [compound 531150]
% inhibition [2]: 48%

531127 (antisense e[5mC]*eA*eG*eA*eG*d[5mC]*d[5mC]*dT*dT*dG*dA*dT*d[5mC]*dA*dG*eA*eA*eT*eA*eA) [compound 531127]
% inhibition [2]: 12%

530962 (antisense e[5mC]*e[5mC]*eT*eT*eT*dT*dT*dT*dG*dG*d[5mC]*dA*dT*dT*d[5mC]*eT*eT*e[5mC]*eA*eA) [compound 530962]
% inhibition [3]: 64%

531099 (eT*eG*eG*eA*eT*dG*dG*dG*dT*dA*dG*dA*dG*dG*d[5mC]*e[5mC]*eT*eT*eT*e[5mC]; antisense) [compound 531099]
% inhibition [2]: 64%

531089 (eA*eA*eA*eA*e[5mC]*dA*d[5mC]*d[5mC]*dA*dT*dT*dA*dA*dA*dT*e[5mC]*e[5mC]*eA*eT*eT; antisense) [compound 531089]
% inhibition [2]: 45%

531117 (antisense eA*e[5mC]*e[5mC]*e[5mC]*eA*dA*dT*dT*dA*dT*dT*dT*dT*dT*dA*eA*eT*eG*eG*e[5mC]) [compound 531117]
% inhibition [2]: 62%

531106 (antisense eA*eA*eG*eA*eT*d[5mC]*dT*dA*dG*dA*dT*dA*dA*dT*dT*e[5mC]*eT*eT*eG*eT) [compound 531106]
% inhibition [2]: 31%

531160 (antisense eT*eG*eA*eT*eA*dT*d[5mC]*dA*dT*d[5mC]*dA*dT*d[5mC]*d[5mC]*d[5mC]*eA*eA*eT*eG*eA) [compound 531160]
% inhibition [2]: 13%

531168 (antisense eA*e[5mC]*e[5mC]*e[5mC]*e[5mC]*dA*dA*d[5mC]*dA*dG*dA*d[5mC]*dA*dG*d[5mC]*e[5mC]*e[5mC]*eA*e[5mC]*e[5mC]) [compound 531168]
% inhibition [1]: 55%
